Numbered stars: 1 amine (or outer) side, 2 acyl side, 3 side chain; on linkers, the order of the positions; unused ones are H or OH. Square brackets hold non-standard residues; d marks the D form. Side chains are listed from the residue outwards. Peptide text beside a SMILES is read from it. * marks the point of attachment. C20 diacid = O=C(O)CCCCCCCCCCCCCCCCCCC(=O)*; C18 diacid = O=C(O)CCCCCCCCCCCCCCCCC(=O)*; αMePhe(2-F) = C[C@](N)(Cc1ccccc1F)C(=O)O; C16 diacid = O=C(O)CCCCCCCCCCCCCCC(=O)*; γGlu = O=C(O)[C@H](CCC(=O)[*:2])N[*:1]; αMeY = C[C@](N)(Cc1ccc(O)cc1)C(=O)O; αMeF = C[C@](N)(Cc1ccccc1)C(=O)O; αMeL = CC(C)C[C@](C)(N)C(=O)O; Orn = NCCC[C@H](N)C(=O)O; AEEA = NCCOCCOCC(=O)O; Aib = CC(C)(N)C(=O)O
Legend:
human Gcg receptor = biological target: T1, human Gcg receptor (Homo sapiens, UniProt P47871); assay: [125I]-Glucagon binding (SPA), human Gcg receptor; conditions: read-out: hGLcgR Ki, nM (SEM, n)
T1 construct: expressed in transfected cells; crude membranes
How it was run: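 Cell pellets were lysed in hypotonic Tris buffer, pH 7.5, homogenized, and spun at low then high speed to give crude membranes. Ki was derived from the fitted IC50.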

human GIP receptor = biological target: T2, human GIP receptor (Homo sapiens, UniProt P48546); assay: [125I]-GIP binding (SPA), human GIP receptor; conditions: read-out: hGIPR Ki, nM (SEM, n)
T2 construct: expressed in transfected cells; crude membranes
T2 sequence (P48546 22-466): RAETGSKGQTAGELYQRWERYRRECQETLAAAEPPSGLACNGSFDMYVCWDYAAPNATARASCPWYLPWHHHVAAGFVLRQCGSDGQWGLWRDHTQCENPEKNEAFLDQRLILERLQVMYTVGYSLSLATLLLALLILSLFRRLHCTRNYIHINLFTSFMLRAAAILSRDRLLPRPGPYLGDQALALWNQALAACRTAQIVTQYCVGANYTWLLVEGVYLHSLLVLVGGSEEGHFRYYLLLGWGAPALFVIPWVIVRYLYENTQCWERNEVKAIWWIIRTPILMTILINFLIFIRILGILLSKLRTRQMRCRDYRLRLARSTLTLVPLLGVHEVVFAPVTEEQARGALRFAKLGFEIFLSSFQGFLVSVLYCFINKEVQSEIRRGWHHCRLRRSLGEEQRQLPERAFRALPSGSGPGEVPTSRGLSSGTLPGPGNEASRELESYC

[1] = biological target: human GLP-1 receptor (GLP-1R) (Homo sapiens, UniProt P43220); assay: cAMP pharmacological functional assay in presence of casein, hGLP-1R; format: cell-based; conditions: HEK293 cells expressing hGLP-1R, 0.1% Casein, geometric mean; read-out: hGLP1R cAMP Rel EC50 nM (SEM, n)
[2] = biological target: T3, gastric inhibitory peptide receptor (GIPR) (Homo sapiens, UniProt P48546); assay: cAMP pharmacological functional assay in presence of casein, hGIPR; format: cell-based; conditions: HEK293 cells expressing hGIPR, 0.1% Casein, geometric mean; read-out: hGIPR cAMP Rel EC50 nM (SEM, n)
T3 sequence (P48546 22-466): T2 sequence (P48546 22-466)

human GLP-1R [3] = biological target: T4, human GLP-1R (Homo sapiens, UniProt P43220); assay: [125I]-GLP-1 binding (SPA), human GLP-1 receptor; parameters: expressed in transfected cells; crude membranes; conditions: read-out: hGLP1R Ki, (nM) (SEM, n)
How it was run: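 Crude-membrane binding assay; one membrane prep included 1 mM MgCl2 and 25 units/ml DNAse I during lysis. Assay buffer at pH 7.4 contains 0.1% (w/v) bacitracin and 0.003% (w/v) TWEEN-20. Ki is reported as geometric mean.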

human GLP-1R [4] = biological target: T4, human GLP-1R; assay: GLP-1R CHO cell β-arrestin recruitment assay; format: cell-based; parameters: host or cells: CHO-K1 PathHunter cells, assay-ready frozen; conditions: for EC50: CHO-K1 cells, PathHunter β-arrestin-2 recruitment, 0.1% casein, read-out: hGLP1R B-Arrestin2 Rel EC50 uM (SEM, n); for hGLP1R B-Arrestin2 % Top: normalized to GLP-1 maximum control
Source text: Activated G-protein coupled receptors can interact with the β-arrestin family of signalling proteins. […] CHO-K1 cells expressing Pro-Link-tagged Human GLP-1R and enzyme-acceptor-tagged β-arrestin-2 may be obtained from DiscoveRx and prepared as assay-ready frozen cells. Test peptides are solubilized in DMSO and serial dilutions are perfomed using the Echo acoustic dispenser (LabCyte). Assay media is the PathHunter Cell Assay Buffer (DiscoveRx) containing 0.1% w/v hydrolyzed Casein (Sigma). […] Plates are incubated for 90 minutes in a 37′C/5% C02 incubator and 10 ul of PathHunter detection reagent is added (DiscoveRx) and plates are incubated at room temperature for 60 minutes. Luminescence signal is measured. Peptide concentration-response curves fit to a four-parameter logistic model to calculate potency as an EC50.

T4 sequence (P43220 24-463): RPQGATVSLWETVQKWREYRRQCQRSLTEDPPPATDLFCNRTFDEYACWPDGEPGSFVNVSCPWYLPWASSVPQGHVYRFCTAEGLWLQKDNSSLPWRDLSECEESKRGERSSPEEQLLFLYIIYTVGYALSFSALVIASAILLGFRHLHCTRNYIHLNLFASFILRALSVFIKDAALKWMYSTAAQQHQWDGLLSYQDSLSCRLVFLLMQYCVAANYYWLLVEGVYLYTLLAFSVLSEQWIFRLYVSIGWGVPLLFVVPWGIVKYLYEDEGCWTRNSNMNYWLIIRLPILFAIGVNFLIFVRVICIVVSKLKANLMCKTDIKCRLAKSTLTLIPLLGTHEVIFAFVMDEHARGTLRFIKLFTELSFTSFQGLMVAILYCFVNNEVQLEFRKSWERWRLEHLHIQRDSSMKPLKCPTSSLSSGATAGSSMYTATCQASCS
human GLP-1 receptor (GLP-1R), sequence (P43220 24-463): as above
T1 sequence (P47871 26-477): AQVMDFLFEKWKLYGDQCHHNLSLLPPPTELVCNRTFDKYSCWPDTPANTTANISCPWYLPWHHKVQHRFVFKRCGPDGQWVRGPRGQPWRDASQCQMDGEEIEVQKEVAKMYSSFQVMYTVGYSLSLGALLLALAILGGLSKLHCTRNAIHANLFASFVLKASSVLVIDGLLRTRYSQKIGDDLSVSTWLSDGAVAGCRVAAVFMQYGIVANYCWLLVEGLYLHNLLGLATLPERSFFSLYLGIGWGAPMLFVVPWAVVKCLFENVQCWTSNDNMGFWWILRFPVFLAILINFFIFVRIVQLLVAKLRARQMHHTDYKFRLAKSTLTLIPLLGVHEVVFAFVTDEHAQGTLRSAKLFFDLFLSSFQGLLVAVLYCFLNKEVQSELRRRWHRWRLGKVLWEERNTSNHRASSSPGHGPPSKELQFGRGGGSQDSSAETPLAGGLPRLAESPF

SMILES | Ki (human Gcg receptor) | Ki (human GIP receptor) | EC50 [1] | EC50 [2] | Ki (human GLP-1R [3]) | EC50 (human GLP-1R [4]) | hGLP1R B-Arrestin2 % Top (human GLP-1R [4])
CC[C@H](C)[C@H](NC(=O)[C@H](CC(C)C)NC(=O)[C@H](Cc1ccc(O)cc1)NC(=O)[C@H](CCC(=O)O)NC(=O)[C@@H](NC(=O)[C@H](Cc1ccccc1)NC(=O)[C@H](C)NC(=O)C(C)(C)NC(=O)[C@H](CCC(N)=O)NC(=O)[C@H](C)NC(=O)[C@H](CCCCNC(=O)COCCOCCNC(=O)COCCOCCNC(=O)CC[C@H](NC(=O)CCCCCCCCCCCCCCCCCCC(=O)O)C(=O)O)NC(=O)[C@H](CCCN)NC(=O)[C@H](CC(=O)O)NC(=O)[C@H](CC(C)C)NC(=O)[C@](C)(CC(C)C)NC(=O)[C@@H](NC(=O)[C@H](CO)NC(=O)[C@H](Cc1ccc(O)cc1)NC(=O)[C@H](CC(=O)O)NC(=O)[C@H](CO)NC(=O)[C@@H](NC(=O)[C@H](Cc1ccccc1)NC(=O)[C@@H](NC(=O)CNC(=O)[C@H](CCC(=O)O)NC(=O)C(C)(C)NC(=O)[C@H](N)Cc1ccc(O)cc1)[C@@H](C)O)[C@@H](C)O)[C@@H](C)CC)C(C)C)C(=O)N[C@@H](CCC(=O)O)C(=O)NCC(=O)NCC(=O)N1CCC[C@H]1C(=O)N[C@@H](CO)C(=O)N[C@@H](CO)C(=O)NCC(=O)N[C@@H](C)C(=O)N1CCC[C@H]1C(=O)N1CCC[C@H]1C(=O)N1CCC[C@H]1C(=O)N[C@@H](CO)C(N)=O [Example 360] (H-[dY][Aib]EGTFTSDYSI[αMeL]LD[Orn]K([AEEA-AEEA-γGlu-C20 diacid])AQ[Aib]AFVEYLIEGGPSSGAPPPS-NH2) | 485 nM | 0.128 nM | 0.145 nM | 0.197 nM | 1.74 nM | 0.0395 µM | 25.8%
CC[C@H](C)[C@H](NC(=O)[C@H](CC(C)C)NC(=O)[C@H](Cc1ccc(O)cc1)NC(=O)[C@@H](CCC(=O)O)NC(=O)[C@@H](NC(=O)[C@H](Cc1ccccc1)NC(=O)[C@H](C)NC(=O)C(C)(C)NC(=O)[C@H](CCC(N)=O)NC(=O)[C@H](C)NC(=O)[C@H](CCCCNC(=O)COCCOCCNC(=O)COCCOCCNC(=O)CC[C@H](NC(=O)CCCCCCCCCCCCCCCCCCC(=O)O)C(=O)O)NC(=O)[C@H](CCCCN)NC(=O)[C@H](CC(=O)O)NC(=O)[C@H](CC(C)C)NC(=O)[C@](C)(CC(C)C)NC(=O)[C@@H](NC(=O)[C@H](CO)NC(=O)[C@H](Cc1ccc(O)cc1)NC(=O)[C@H](CC(=O)O)NC(=O)[C@H](CO)NC(=O)[C@@H](NC(=O)[C@H](Cc1ccccc1)NC(=O)[C@@H](NC(=O)CNC(=O)[C@H](CCC(=O)O)NC(=O)C(C)(C)NC(=O)[C@H](N)Cc1ccc(O)cc1)[C@@H](C)O)[C@@H](C)O)[C@@H](C)CC)C(C)C)C(=O)N[C@@H](C)C(=O)NCC(=O)NCC(=O)N1CCC[C@H]1C(=O)N[C@@H](CO)C(=O)N[C@@H](CO)C(=O)NCC(=O)N[C@@H](C)C(=O)N1CCC[C@H]1C(=O)N1CCC[C@H]1C(=O)N1CCC[C@H]1C(=O)N[C@@H](CO)C(N)=O [Example 361] (H-[dY][Aib]EGTFTSDYSI[αMeL]LDKK([AEEA-AEEA-γGlu-C20 diacid])AQ[Aib]AFV[dE]YLIAGGPSSGAPPPS-NH2) |  |  | 0.955 nM | 0.401 nM |  | 0.269 µM | 20.2%
CC[C@H](C)[C@H](NC(=O)[C@H](CC(C)C)NC(=O)[C@](C)(Cc1ccc(O)cc1)NC(=O)[C@@H](CCC(=O)O)NC(=O)[C@@H](NC(=O)[C@H](Cc1ccccc1)NC(=O)[C@H](CCC(=O)O)NC(=O)C(C)(C)NC(=O)[C@H](CCC(N)=O)NC(=O)[C@H](C)NC(=O)[C@H](CCCCNC(=O)COCCOCCNC(=O)COCCOCCNC(=O)CC[C@H](NC(=O)CCCCCCCCCCCCCCCCC(=O)O)C(=O)O)NC(=O)[C@H](CCCN)NC(=O)[C@H](CC(=O)O)NC(=O)[C@H](CC(C)C)NC(=O)[C@](C)(CC(C)C)NC(=O)[C@@H](NC(=O)[C@H](CO)NC(=O)[C@H](Cc1ccc(O)cc1)NC(=O)[C@H](CC(=O)O)NC(=O)[C@H](CO)NC(=O)[C@@H](NC(=O)[C@](C)(Cc1ccccc1F)NC(=O)[C@@H](NC(=O)CNC(=O)[C@H](CCC(=O)O)NC(=O)C(C)(C)NC(=O)[C@@H](N)Cc1ccc(O)cc1)[C@@H](C)O)[C@@H](C)O)[C@@H](C)CC)[C@@H](C)CC)C(=O)N[C@@H](CCC(=O)O)C(=O)NCC(=O)NCC(=O)N1CCC[C@H]1C(=O)N[C@@H](CO)C(=O)N[C@@H](CO)C(=O)NCC(=O)N[C@@H](C)C(=O)N1CCC[C@H]1C(=O)N1CCC[C@H]1C(=O)N1CCC[C@H]1C(=O)N[C@@H](CO)C(N)=O [Example 236] (H-Y[Aib]EGT[αMePhe(2-F)]TSDYSI[αMeL]LD[Orn]K([AEEA-AEEA-γGlu-C18 diacid])AQ[Aib]EFI[dE][αMeY]LIEGGPSSGAPPPS-NH2) | 200 nM | 0.0425 nM | 0.0231 nM | 0.0249 nM | 1.05 nM |  | 
CC[C@H](C)[C@H](NC(=O)[C@H](CC(C)C)NC(=O)[C@H](Cc1ccc(O)cc1)NC(=O)[C@@H](CCC(=O)O)NC(=O)[C@@H](NC(=O)[C@H](Cc1ccccc1)NC(=O)[C@H](CCC(=O)O)NC(=O)C(C)(C)NC(=O)[C@H](CCC(N)=O)NC(=O)[C@H](C)NC(=O)[C@H](CCCCNC(=O)COCCOCCNC(=O)COCCOCCNC(=O)CC[C@H](NC(=O)CCCCCCCCCCCCCCC(=O)O)C(=O)O)NC(=O)[C@H](CCC(=O)O)NC(=O)[C@H](CC(=O)O)NC(=O)[C@H](CC(C)C)NC(=O)[C@](C)(CC(C)C)NC(=O)[C@@H](NC(=O)[C@H](CO)NC(=O)[C@H](Cc1ccc(O)cc1)NC(=O)[C@H](CC(=O)O)NC(=O)[C@H](CO)NC(=O)[C@@H](NC(=O)[C@](C)(Cc1ccccc1F)NC(=O)[C@@H](NC(=O)CNC(=O)[C@H](CCC(=O)O)NC(=O)C(C)(C)NC(=O)[C@@H](N)Cc1ccc(O)cc1)[C@@H](C)O)[C@@H](C)O)[C@@H](C)CC)[C@@H](C)CC)C(=O)N[C@@H](CCC(=O)O)C(=O)NCC(=O)NCC(=O)N1CCC[C@H]1C(=O)N[C@@H](CO)C(=O)N[C@@H](CO)C(=O)NCC(=O)N[C@@H](C)C(=O)N1CCC[C@H]1C(=O)N1CCC[C@H]1C(=O)N1CCC[C@H]1C(=O)N[C@@H](CO)C(N)=O [Example 208] (H-Y[Aib]EGT[αMePhe(2-F)]TSDYSI[αMeL]LDEK([AEEA-AEEA-γGlu-C16 diacid])AQ[Aib]EFI[dE]YLIEGGPSSGAPPPS-NH2) | > 1060 nM | 0.0537 nM | 0.0753 nM | 0.0371 nM | 2.13 nM |  | 
CC[C@H](C)[C@H](NC(=O)[C@H](CC(C)C)NC(=O)[C@H](Cc1ccc(O)cc1)NC(=O)[C@H](CCC(=O)O)NC(=O)[C@@H](NC(=O)[C@H](Cc1ccccc1)NC(=O)[C@H](CCC(=O)O)NC(=O)C(C)(C)NC(=O)[C@H](CCC(N)=O)NC(=O)[C@H](C)NC(=O)[C@H](CCCCNC(=O)COCCOCCNC(=O)COCCOCCNC(=O)CC[C@H](NC(=O)CCCCCCCCCCCCCCCCC(=O)O)C(=O)O)NC(=O)[C@H](CCCCN)NC(=O)[C@H](CC(=O)O)NC(=O)[C@H](CC(C)C)NC(=O)[C@H](CC(C)C)NC(=O)[C@@H](NC(=O)[C@H](CO)NC(=O)[C@H](Cc1ccc(O)cc1)NC(=O)[C@H](CC(=O)O)NC(=O)[C@H](CO)NC(=O)[C@@H](NC(=O)[C@](C)(Cc1ccccc1)NC(=O)[C@@H](NC(=O)CNC(=O)[C@H](CCC(=O)O)NC(=O)C(C)(C)NC(=O)[C@@H](N)Cc1ccc(O)cc1)[C@@H](C)O)[C@@H](C)O)[C@@H](C)CC)[C@@H](C)CC)C(=O)N[C@@H](CCC(=O)O)C(=O)NCC(=O)NCC(=O)N1CCC[C@H]1C(=O)N[C@@H](CO)C(=O)N[C@@H](CO)C(=O)NCC(N)=O [Example 308] (H-Y[Aib]EGT[αMeF]TSDYSILLDKK([AEEA-AEEA-γGlu-C18 diacid])AQ[Aib]EFIEYLIEGGPSSG-NH2) | 94.2 nM | 0.0288 nM | 0.0392 nM | 0.0262 nM | 1.01 nM |  | 

From patent US12252524B2, “GIP/GLP1 co-agonist compounds” (Eli Lilly and Company, priority 2018, dated 2025)
